These results are taken from article PMC8920929 (The Journal of Biological Chemistry, 2022).

Where a chain is given by its changes, count along the chain named.

In general, EC50 refers to the concentration that produces a half-maximal response.

One assay has as its target T1, human TRPV3 (Homo sapiens, UniProt Q8NET8).
T1 sequence (Q8NET8 1-790): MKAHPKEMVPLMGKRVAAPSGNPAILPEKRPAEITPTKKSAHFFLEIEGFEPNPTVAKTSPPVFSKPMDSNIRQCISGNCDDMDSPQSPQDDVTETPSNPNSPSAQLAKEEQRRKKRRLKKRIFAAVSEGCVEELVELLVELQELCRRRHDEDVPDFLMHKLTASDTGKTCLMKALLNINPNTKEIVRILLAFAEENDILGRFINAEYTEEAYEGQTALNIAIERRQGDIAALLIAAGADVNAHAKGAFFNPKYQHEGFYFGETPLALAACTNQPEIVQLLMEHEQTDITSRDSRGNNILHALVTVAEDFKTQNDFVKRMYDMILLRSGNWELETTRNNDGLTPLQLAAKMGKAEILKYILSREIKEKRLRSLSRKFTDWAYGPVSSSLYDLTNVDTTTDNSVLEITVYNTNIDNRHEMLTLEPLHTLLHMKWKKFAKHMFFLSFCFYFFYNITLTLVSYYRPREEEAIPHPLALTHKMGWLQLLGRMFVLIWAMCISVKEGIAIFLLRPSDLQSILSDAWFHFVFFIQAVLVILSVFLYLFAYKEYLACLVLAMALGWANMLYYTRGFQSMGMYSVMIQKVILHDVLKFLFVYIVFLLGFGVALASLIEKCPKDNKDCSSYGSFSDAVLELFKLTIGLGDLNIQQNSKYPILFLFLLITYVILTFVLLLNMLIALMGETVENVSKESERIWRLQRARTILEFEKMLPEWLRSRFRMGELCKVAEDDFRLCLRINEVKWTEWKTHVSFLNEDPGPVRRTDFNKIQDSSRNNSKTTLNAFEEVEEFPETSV
Description: Inside-out single channel recordings of TRPV3. Format: biochemical.

The next assay addresses T2, TRPV3-I505A (Homo sapiens, UniProt Q8NET8, I505A).
T2 sequence (Q8NET8 1-790 I505A): T1 sequence (Q8NET8 1-790) with I505A
Description: Whole-cell and single-channel recordings of the TRPV3-I505A mutant. It counts as cell-based. The note with it: carvacrol 0.3-3.0 mM or 50 μM 2-APB.

The next assay deals with T3, TRPV3-L508A (Homo sapiens, UniProt Q8NET8, L508A).
T3 sequence (Q8NET8 1-790 L508A): T1 sequence (Q8NET8 1-790) with L508A
Description: Whole-cell and single-channel recordings of the TRPV3-L508A mutant. It counts as cell-based. The conditions noted are these: carvacrol 0.3-3.0 mM or 50 μM 2-APB.

For another assay, the target named is T4, TRPV3-L508F (Homo sapiens, UniProt Q8NET8, L508F).
T4 sequence (Q8NET8 1-790 L508F): T1 sequence (Q8NET8 1-790) with L508F
Description: Whole-cell and single-channel recordings of the TRPV3-L508F mutant. Format: cell-based. The note with it: carvacrol 0.3-3.0 mM or 50 μM 2-APB.

In a further assay the target is TRPV3-F524A (Homo sapiens, UniProt Q8NET8, F524A). The note with it: 50 μM 2-APB; the mutant also lost surface expression.
Sequence of TRPV3-F524A (Q8NET8 whole entry F524A): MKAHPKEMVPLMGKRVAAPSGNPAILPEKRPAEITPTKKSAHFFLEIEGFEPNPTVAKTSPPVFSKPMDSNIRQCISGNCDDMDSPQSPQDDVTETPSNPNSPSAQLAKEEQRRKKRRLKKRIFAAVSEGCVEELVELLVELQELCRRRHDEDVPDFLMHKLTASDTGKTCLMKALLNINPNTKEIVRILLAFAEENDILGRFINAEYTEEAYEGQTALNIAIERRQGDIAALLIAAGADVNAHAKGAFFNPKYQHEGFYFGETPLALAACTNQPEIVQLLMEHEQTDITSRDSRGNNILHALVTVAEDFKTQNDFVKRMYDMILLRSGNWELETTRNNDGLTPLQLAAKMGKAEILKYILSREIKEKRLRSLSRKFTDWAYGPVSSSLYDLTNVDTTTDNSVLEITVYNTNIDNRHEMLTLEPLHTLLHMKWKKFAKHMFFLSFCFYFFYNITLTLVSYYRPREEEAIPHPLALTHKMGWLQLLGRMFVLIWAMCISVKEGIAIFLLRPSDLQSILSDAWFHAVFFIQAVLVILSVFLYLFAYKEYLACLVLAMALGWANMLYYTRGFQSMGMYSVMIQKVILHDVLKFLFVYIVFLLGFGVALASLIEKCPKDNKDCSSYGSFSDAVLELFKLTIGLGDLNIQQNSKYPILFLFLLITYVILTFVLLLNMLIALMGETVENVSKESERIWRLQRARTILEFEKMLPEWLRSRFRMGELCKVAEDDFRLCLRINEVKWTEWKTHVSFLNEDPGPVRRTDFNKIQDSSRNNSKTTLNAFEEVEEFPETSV
In assay [1] the test system is TRPV3. The conditions noted are these: ref [38]; cited from earlier work.
For assay [2], the system named is TRPV3. The note with it: ref [30], cited from earlier work; for TRPV3 currents induced: in comparison with carvacrol.
For the next assay, the system named is mice. The note with it: ref [35]; cited from earlier work.
The next assay deals with keratinocytes. The conditions noted are these: ref [35]; cited from earlier work.
Setting [3] is: +80 mV, carvacrol 300 μM or 2-APB 50 μM alone.
The mark [4] stands for this setting: FB 50 μM in the presence of 50 μM 2-APB, +80 mV.
Setting [5] is: FB 50 μM in the presence of 300 μM carvacrol, +80 mV.

In the case of `NCCOB(c1ccccc1)c1ccccc1` [2-APB, 2-aminoethyl diphenylborinate], at human TRPV3 (setting [3]), the “single-channel open frequency (Freq)” value worked out at 65.48 ± 12.31 Hz and the “single-channel open probability (Po)” value was determined as 0.77 ± 0.07. Also, at human TRPV3 (inside-out patches, -80 mV to +80 mV, carvacrol 300 μM, 2-APB 50 μM, n = 4), the “unitary conductance of TRPV3 single channels” value was 173.2 ± 5.3 pS. Also, the “activation of TRPV3 I505A mutant channel” value at TRPV3-I505A is on record as “intact activation”. On TRPV3-L508A, the “activation of TRPV3 L508A mutant channel” value is reported as “still able to activate the mutant channel”. In addition, the “activation of TRPV3 L508F mutant channel” value at TRPV3-L508F was “but not 2-APB”. Moreover, the “sensitivity of TRPV3 F524A mutant channel” value at TRPV3-F524A is on record as “reduced sensitivity”. Moreover, in the assay on TRPV3 [1], the “unitary conductance, 2-APB in the absence of dyclonine” value is on record as 163.6 ± 6.4 pS and the “unitary conductance, 2-APB in the presence of TRPV3 inhibitor dyclonine” value is 179.2 ± 5.5 pS.

As for `CC12CCC(CC1=O)C2(C)C` (stereo not drawn) [camphor], in the assay with TRPV3 [2] (read-out: EC50, activation of TRPV3, [32]), the EC50 was roughly 6 mM.

For the compound `Cc1ccc(C(C)C)cc1` [p-Cymene], the TRPV3 currents induced entry in the assay with TRPV3 [2] is “small or negligible”.

`Cc1ccc(C)c(O)c1` [p-Xylenol]: the TRPV3 currents induced entry with TRPV3 [2] is “small or negligible”.

With forsythoside B [FB], on human TRPV3 (setting [4]), the “Po after addition of inhibitor, 2-APB-activated channels” value is on record as 0.12 ± 0.08 and the “open Freq after addition of inhibitor, 2-APB-activated channels” value was determined as 20.07 ± 1.77 Hz. At human TRPV3 (setting [5]), the “Po after addition of inhibitor, carvacrol-activated channels” value is 0.12 ± 0.03 and the “open Freq after addition of inhibitor, carvacrol-activated channels” value worked out at 21.78 ± 2.59 Hz. Besides, the “effect on carvacrol-induced pruritus” value in the assay with mice is recorded as “attenuates pruritus”. Besides, in the assay on keratinocytes, the “effect on carvacrol-induced cytotoxicity of keratinocytes” value is listed as “attenuates”.
